Source: PubChem BioAssay (NCI)
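Growth conditions: 96-well plates. Treatment: test compound, 48 hours, 5 concentrations. Analysis: linear interpolation between bracketing concentrations; unreached endpoints set to highest concentration. The concentration for 50% growth inhibition is given as GI50. Definition used: TGI = concentration required for complete inhibition of growth.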

Experiments:
Assay in all cases: DTP human tumour cell line panel, 48 h
[1] = tested on: A549 NSCLC
[2] = tested on: ACHN renal
[3] = tested on: DU-145 prostate
[4] = tested on: HCC-2998 colon
[5] = tested on: HCT-116 colon
[6] = tested on: HOP-92 NSCLC
[7] = tested on: HS 578T breast
[8] = tested on: IGROV1 ovarian
[9] = tested on: LOX IMVI melanoma
[10] = tested on: MCF7 breast
[11] = tested on: NCI-H23 lung
[12] = tested on: OVCAR-3 ovarian
[13] = tested on: PC-3 prostate
[14] = tested on: SK-MEL-5 melanoma
[15] = tested on: SW-620 colon
[16] = tested on: T-47D breast
[17] = tested on: UACC-257 melanoma

Compound	TGI [1] [µM]	TGI [2] [µM]	TGI [3] [µM]	TGI [4] [µM]	TGI [5] [µM]	TGI [6] [µM]	TGI [7] [µM]	TGI [8] [µM]	TGI [9] [µM]	TGI [10] [µM]	TGI [11] [µM]	TGI [12] [µM]	TGI [13] [µM]	TGI [14] [µM]	TGI [15] [µM]	TGI [16] [µM]	TGI [17] [µM]	GI50 [17] [µM]
O=C(NC(Nc1ccc(F)c(Cl)c1)(C(F)(F)F)C(F)(F)F)OCc1ccccc1	> 100	> 100	> 100	64.8	> 100	95	> 100	> 100	> 100	38.1	> 100	34.8	> 100	> 100	> 100	> 100	> 100	
CCOC(=O)/C=C(/C(=O)OCC)n1ccc(=O)n(/C(=C/C(=O)OCC)C(=O)OCC)c1=O	32.7	8.06	34.9	35	6.88	4.11	45.5	31.4	10.5	19.9	42.7	16.9	29	28.6	4.07	15.9	24.5	
O=C(c1ccccc1)c1sc2c(=O)c(C(=O)c3ccccc3)c(C(=O)c3ccccc3)sc2c(=O)c1C(=O)c1ccccc1	> 100	> 100	> 100	44	> 100	> 100	> 100	69.2	> 100	> 100	> 100	> 100	> 100	> 100	> 100	> 100	> 100	
CN1CCC23c4c5ccc(O)c4OC2c2[nH]c4ccccc4c2CC3(O)C1C5 (stereo not drawn)	> 100	65.1	> 100	32	> 100	40.5	70.9	> 100	54.7	> 100	> 100	> 100	> 100	27.1	> 100	46.9	36.8	
Cc1ccc(/C=C/C(=O)c2cc(CN(C)C)c(O)c(CN(C)C)c2)cc1	58.5	90.8	> 100	46.2	39.7	70.8	86.7	> 100	21.2	50.1	> 100	69.5	36.8	30.6	38.2	> 100	27.4	
COc1cc(N(CCC#N)CCC#N)ccc1/C(N=Nc1ccccc1)=N/NC(=O)c1cc(Br)ccc1O	> 100	81.6	74.3	48	44.1	68.6	> 100	35	65.1	55.5	49.8	83.5	> 100	42.3	> 100	57.8	62.8	
COc1cc2cc(C(=O)N3CC(CCl)c4ccccc43)[nH]c2c(OC)c1OC (stereo not drawn)	> 100	> 100	> 100	> 100	> 100	> 100	> 100	> 100	> 100	> 100	> 100	> 100	> 100	> 100	> 100	> 89.4	> 100	
CCS(=O)(=O)CCn1cnc2c1c(=O)n(C)c(=O)n2C	> 100	> 100	> 100	> 100	> 100	> 100	> 100	> 100	> 100	> 100	> 100	> 100	> 100	> 100	> 100	> 100	> 100	
C=CC[C@@]1(C)CCCCCCCCC[C@@](C)(CC=C)C1=O	> 100	> 100	> 100	35	> 100	> 100	42.9	> 100	33.6	> 100	63.9	38.1	> 100	29.5	63.5	60.9	58.6	
COC(=O)[C@@H]1C[C@H]([Se]c2ccccc2)CN1C(=O)OCc1ccccc1	> 100	> 100	> 100	> 100	> 100	> 100	> 100	> 100	26.5	41.5	99.2	67.1	> 100	30.6	> 100	> 100	> 100	
O=C(/C=C/c1ccc(O)c(O)c1O)OCCc1ccccc1	52.8	> 100	> 100	> 100	26.3	> 100	> 100	84.5	53.5	32.2	48.7	46.5	> 100	> 100	49.2	> 100	> 100	
O=C1NC(N2CCCC(CO)C2)=N/C1=C\c1ccc(Cl)cc1 (stereo not drawn)	> 100	> 100	> 100	> 100	> 100	> 100	> 100	> 100	> 100	> 100	> 100	> 100	> 100	> 100	> 100	> 100	> 100	
COc1cc2c(cc1OC)C(N)CC2=O (stereo not drawn)	> 100	> 100	> 100	> 100	> 100	> 100	> 100	> 100	> 100	> 100	> 100	> 100	> 100	> 100	> 100	> 100	> 100	
NC(=Nc1ccc(O)cc1)S(=O)O	> 100	> 100	> 100	> 100	> 100	> 100	> 100	> 100	> 100	> 100	> 100	> 100	> 100	> 100	> 100	> 100	> 100	
C=CCOC(=O)[C@@H]1C[C@@H](OC(C)(C)C)CN1C(=O)[C@@H]1[C@H]2OC(C)(C)O[C@H]2CN1C(=O)OCC1c2ccccc2-c2ccccc21	31.9	30.1	8.12	30.7	31.8	35	42.5	37.6	4.87	> 100	33.9	35.2	30.8	37	43.4	45	35.4	
C=C1C(=O)O[C@H]2[C@H]1CC(=O)/C(C)=C/CC[C@@]1(C)O[C@@H]21	27.9	1.44	18.7	6.02	2.51	1.65	8.62	6.27	1.47	1.99	4.03	0.6	6.1	2.63	0.768	2.93	5.57	2
O=C(CCN1CCOCC1)Nc1ccc2sc3ccccc3c(=O)c2n1	> 100	> 100	> 100	> 100	> 100	> 100	> 100	> 100	> 100	> 100	> 100	> 100	> 100	82.5	> 100	> 100	> 100	
C=CCNC1=C2C[C@@H](C)C[C@@H](OC)[C@H](OC(=O)CN)[C@H](C)/C=C(\C)[C@@H](OC(N)=O)[C@H](OC)/C=C\C=C(/C)C(=O)NC(=CC1=O)C2=O	21	19.6	> 40.9	1.29	14.4	8.71	80.1	15.5	6.45	12.8	21.3	7.41	11.9	17.9	> 100	> 25.5	15.7	
CC1(C)CC(=O)c2c(nc(SSc3nc4c(c(-c5ccccc5)c3C#N)C(=O)CC(C)(C)C4)c(C#N)c2-c2ccccc2)C1	> 10	> 10	> 10	> 10	> 10	> 10	> 10	> 10	> 10	> 10	> 10	> 10	> 10	> 10	> 10	> 10	> 10	
N=C(N)SCc1cccc2c(=O)cc(-c3ccccc3)oc12	29	15.5	16.2	27.1	19.7	16.9	45.4	30.2	28.3	16.3	31.3	23.1	17.3	29.8	> 39.3	15.9	26	
COc1cc2c(cc1O)[C@@H]1Cc3c(cc(OC)c(OC)c3Oc3cc4c(cc3OC)CCN(C)[C@@H]4Cc3ccc(O)cc3)[C@H](C2)N1C	> 100	> 100	> 100	> 72	> 100	> 100	> 100	> 100	37.7	> 100	> 100	> 100	> 100	30.1	> 100	> 100	44.6	
COc1ccc(Cc2nccc3cc(OC)c(OC)cc23)cc1OC	> 100	> 100	> 100	> 100	> 100	> 100	> 100	> 100	> 100	> 100	> 100	> 100	> 100	99.3	> 100	> 100	> 100	
Cc1cc(NS(=O)(=O)c2ccc(Nc3c4ccccc4nc4ccc(C(=O)Nc5ccc(S(N)(=O)=O)cc5)cc34)cc2)no1	> 100	> 100	> 100	> 100	> 100	> 100	> 100	> 100	> 100	> 100	> 100	> 100	> 100	> 100	> 100	> 100	> 100	
CCCCC(=O)Oc1ccc2c(C)cc(=O)oc2c1	> 100	> 100	> 100	> 100	> 100	> 100	> 100	> 100	> 100	> 100	> 100	> 100	> 100	> 100	> 100	> 100	> 100	
NC(Cc1ccccc1)(C(=O)O)C(=O)O	> 100	> 100	> 100	> 100	> 100	> 100	> 100	> 100	> 100	> 100	> 100	> 100	> 100	> 100	> 100	> 100	> 100	
C=CC(C)CCC(C/C=C(\C)CCC=C(C)C)C(=C)CCCC(C)C (stereo not drawn)	> 100	> 100	> 100	> 100	> 100	> 100	> 100	> 100	> 100	> 100	> 100	> 100	> 100	> 100	> 100	> 100	> 100	
